target: KRas G12C (Homo sapiens, UniProt P01116, G12C); experiment: Cellular inhibition of KRas G12C measured by Phospho-ERK in NCI-H358 cells; type: cell-based; conditions: pERK(Thr202/Tyr204) normalized with GAPDH, NCI-H358 cells, 3 hours; read-out: IC50
In short: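 Ratio of phospho-ERK(Thr202/Tyr204) to GAPDH, read by near-infrared secondary antibodies on fixed, permeabilised NCI-H358 cells, expressed relative to DMSO control. Compound exposure was 3 h at 0.5% DMSO. IC50 values come from 4-parameter curve fits.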

Sequence of KRas G12C (P01116 1-188 isoform P01116-2 G12C): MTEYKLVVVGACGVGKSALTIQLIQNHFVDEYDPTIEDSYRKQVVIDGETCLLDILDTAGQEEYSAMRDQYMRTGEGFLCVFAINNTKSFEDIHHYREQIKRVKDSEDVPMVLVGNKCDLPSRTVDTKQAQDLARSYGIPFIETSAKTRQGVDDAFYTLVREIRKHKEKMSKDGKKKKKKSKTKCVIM

| Compound | IC50 |
| --- | --- |
| C=CC(=O)N1CCN(c2nc(OC[C@@H]3CCCN3C)nc3c2CCN(c2cccc(C)c2C)C3)CC1CC#N (stereo partly drawn) [Example 228, 2-(1-acryloyl-4-(7-(2,3-dimethylphenyl)-2-(((S)-1-methylpyrrolidin-2-yl)methoxy)-5,6,7,8-tetrahydropyrido[3,4-d]pyrimidin-4-yl)piperazin-2-yl)acetonitrile] | 0.1 to 1000 nM |
| C=CC(=O)N1CCN(c2nc(OC[C@@H]3CCCN3C)nc3c2CCN(c2ccccc2Cl)C3)CC1CC#N (stereo partly shown) [Example 229] | 0.1 to 1000 nM |
| C=CC(=O)N1CCN(c2nc(OC[C@@H]3CCCN3C)nc3c2CCN(c2cccc(F)c2C(F)(F)F)C3)CC1CC#N (stereo partly shown) [Example 230] | 0.1 to 1000 nM |
| C=CC(=O)N1CCN(c2nc(OCCCN3CCOCC3)nc3c2CCN(c2cc(O)cc(Cl)c2F)C3)CC1 [Example 232, 1-(4-(7-(3-chloro-2-fluoro-5-hydroxyphenyl)-2-(3-morpholinopropoxy)-5,6,7,8-tetrahydropyrido[3,4-d]pyrimidin-4-yl)piperazin-1-yl)prop-2-en-1-one] | > 1000 nM |
| C=CC(=O)N1CCN(c2nc(OC[C@@H]3CCCN3CC)nc3c2CCN(c2cccc4ccccc24)C3)CC1CC#N (stereo partly drawn) [Example 233, 2-(1-acryloyl-4-(2-(((S)-1-ethylpyrrolidin-2-yl)methoxy)-7-(naphthalen-1-yl)-5,6,7,8-tetrahydropyrido[3,4-d]pyrimidin-4-yl)piperazin-2-yl)acetonitrile] | 0.1 to 1000 nM |
| C=CC(=O)N1CCN(c2nc(OC[C@@H]3CCCN3C)nc3c2CCN(c2ccccc2C(F)(F)F)C3)C[C@@H]1CC#N [Example 237, 2-((S)-1-acryloyl-4-(2-(((S)-1-methylpyrrolidin-2-yl)methoxy)-7-(2-(trifluoromethyl)phenyl)-5,6,7,8-tetrahydropyrido [3,4-d]pyrimidin-4-yl)piperazin-2-yl)acetonitrile 2,2,2-trifluoroacetate] | 0.1 to 1000 nM |
| C=CC(=O)N1CCN(c2nc(OC[C@@H]3CCCN3C)nc3c2CCN(c2c(C)ccc4cn[nH]c24)C3)CC1CC#N (stereo partly shown) [Example 238] | 0.1 to 1000 nM |
| C=CC(=O)N1CCN(c2nc(OC[C@@H]3CCCN3C)nc3c2CCN(c2ccncc2C(F)(F)F)C3)CC1CC#N (stereo partly drawn) [Example 239, 2-(1-acryloyl-4-(2-(((S)-1-methylpyrrolidin-2-yl)methoxy)-7-(3-(trifluoromethyl)pyridin-4-yl)-5,6,7,8-tetrahydropyrido[3,4-d]pyrimidin-4-yl)piperazin-2-yl)acetonitrile] | > 1000 nM |
| C=CC(=O)N1CCN(c2nc(OC[C@@H]3CCCN3C)nc3c2CCN(c2ccccc2CC(F)(F)F)C3)CC1CC#N (stereo partly drawn) [Example 240, 2-(1-acryloyl-4-(2-(((S)-1-methylpyrrolidin-2-yl)methoxy)-7-(2-(2,2,2-trifluoroethyl)phenyl)-5,6,7,8-tetrahydropyrido[3,4-d]pyrimidin-4-yl)piperazin-2-yl)acetonitrile] | > 1000 nM |
| C=CC(=O)N1CCN(c2nc(OC[C@@H]3CCCN3C)nc3c2CCN(c2ncccc2C(F)(F)F)C3)CC1CC#N (stereo partly shown) [Example 241] | > 1000 nM |
| C=CC(=O)N1CCN(c2nc(OC[C@H]3CCCN3C)nc3c2CCN(c2c(C(F)(F)F)ccc4[nH]ncc24)C3)CC1CC#N (stereo partly drawn) [Example 243, 2-[4-[2-[[(2R)-1-methylpyrrolidin-2-yl]methoxy]-7-[5-(trifluoromethyl)-1H-indazol-4-yl]-6,8-dihydro-5H-pyrido[3,4-d]pyrimidin-4-yl]-1-prop-2-enoyl-piperazin-2-yl]acetonitrile] | 0.1 to 1000 nM |
| C=CC(=O)N1CCN(c2nc(OC[C@@H]3CCCN3C)nc3c2CCN(c2ccc(F)c4ccccc24)C3)CC1CC#N (stereo partly drawn) [Example 246, 2-[4-[7-(4-fluoro-1-naphthyl)-2-[[(2S)-1-methylpyrrolidin-2-yl]methoxy]-6,8-dihydro-5H-pyrido[3,4-d]pyrimidin-4-yl]-1-prop-2-enoyl-piperazin-2-yl] acetonitrile] | 0.1 to 1000 nM |
| C=CC(=O)N1CCN(c2nc(OC[C@@H]3CCCN3C)nc3c2CCN(c2cccc4cccnc24)C3)CC1CC#N (stereo partly drawn) [Example 247, 2-(1-acryloyl-4-(2-(((S)-1-methylpyrrolidin-2-yl)methoxy)-7-(quinolin-8-yl)-5,6,7,8-tetrahydropyrido[3,4-d]pyrimidin-4-yl)piperazin-2-yl)acetonitrile] | > 1000 nM |
| C=CC(=O)N1CCN(c2nc(OC[C@@H]3CCCN3C)nc3c2CCN(c2c(Cl)ccc4[nH]ncc24)C3)CC1 [Example 250, 1-[4-[7-(5-chloro-1H-indazol-4-yl)-2-[[(2S)-1-methylpyrrolidin-2-yl]methoxy]-6,8-dihydro-5H-pyrido[3,4-d]pyrimidin-4-yl]piperazin-1-yl]prop-2-en-1-one] | > 1000 nM |
| C=CC(=O)N1CCN(c2nc(OC[C@@H]3CCCN3C)nc3c2CCN(c2cccc4ccc(Cl)cc24)C3)CC1CC#N (stereo partly drawn) [Example 253, 2-(1-acryloyl-4-(7-(7-chloronaphthalen-1-yl)-2-(((S)-1-methylpyrrolidin-2-yl)methoxy)-5,6,7,8-tetrahydropyrido[3,4-d]pyrimidin-4-yl)piperazin-2-yl)acetonitrile] | 0.1 to 1000 nM |
| C=CC(=O)N1CCN(c2nc(OC[C@@H]3CCCN3C)nc3c2CCN(c2cccc4c(F)cccc24)C3)CC1CC#N (stereo partly drawn) [Example 254, 2-[4-[7-(5-fluoro-1-naphthyl)-2-[[(2S)-1-methylpyrrolidin-2-yl]methoxy]-6,8-dihydro-5H-pyrido[3,4-d]pyrimidin-4-yl]-1-prop-2-enoyl-piperazin-2-yl]acetonitrile] | 0.1 to 1000 nM |
| C=CC(=O)N1CCN(c2nc(OC[C@@H]3CCCN3C)nc3c2CCN(c2cccc4ccc(OC)cc24)C3)CC1CC#N (stereo partly drawn) [Example 255, 2-[4-[7-(7-methoxy-1-naphthyl)-2-[[(2S)-1-methylpyrrolidin-2-yl]methoxy]-6,8-dihydro-5H-pyrido[3,4-d]pyrimidin-4-yl]-1-prop-2-enoyl-piperazin-2-yl]acetonitrile] | > 1000 nM |
| C=CC(=O)N1CCN(c2nc(OC[C@@H]3CCCN3C)nc3c2CCN(c2cccc4ccccc24)C3)CC1COC (stereo partly drawn) [Example 256, 1-(2-(methoxymethyl)-4-(2-(((S)-1-methylpyrrolidin-2-yl)methoxy)-7-(naphthalen-1-yl)-5,6,7,8-tetrahydropyrido[3,4-d]pyrimidin-4-yl)piperazin-1-yl)prop-2-en-1-one] | > 1000 nM |
| C=CC(=O)N1CCN(c2nc(OC[C@@H]3CCCN3C)nc3c2CCN(c2nccc4ccccc24)C3)CC1CC#N (stereo partly drawn) [Example 258, 2-[4-[7-(1-isoquinolyl)-2-[[(2S)-1-methylpyrrolidin-2-yl]methoxy]-6,8-dihydro-5H-pyrido[3,4-d]pyrimidin-4-yl]-1-prop-2-enoyl-piperazin-2-yl]acetonitrile] | > 1000 nM |
| C=CC(=O)N1CCN(c2nc(OC[C@@H]3CCCN3C)nc3c2CCN(c2cccc4cc(F)ccc24)C3)CC1CC#N (stereo partly drawn) [Example 259, 2-[4-[7-(6-fluoro-1-naphthyl)-2-[[(2S)-1-methylpyrrolidin-2-yl]methoxy]-6,8-dihydro-5H-pyrido[3,4-d]pyrimidin-4-yl]-1-prop-2-enoyl-piperazin-2-yl]acetonitrile] | 0.1 to 1000 nM |
| C=CC(=O)N1CCN(c2nc(OC[C@@H]3CCCN3C)nc3c2CCN(c2cncc4ccccc24)C3)CC1CC#N (stereo partly drawn) [Example 260, 2-[4-[7-(4-isoquinolyl)-2-[[(2S)-1-methylpyrrolidin-2-yl]methoxy]-6,8-dihydro-5H-pyrido[3,4-d]pyrimidin-4-yl]-1-prop-2-enoyl-piperazin-2-yl]acetonitrile] | 0.1 to 1000 nM |
| C=C(C)C(=O)N1CCN(c2nc(OC[C@@H]3CCCN3C)nc3c2CCN(c2cccc4ccccc24)C3)CC1CC#N (stereo partly drawn) [Example 261, 2-[1-(2-methylprop-2-enoyl)-4-[2-[[(2S)-1-methylpyrrolidin-2-yl]methoxy]-7-(1-naphthyl)-6,8-dihydro-5H-pyrido[3,4-d]pyrimidin-4-yl]piperazin-2-yl]acetonitrile] | > 1000 nM |
| C=CC(=O)N1CCN(c2nc(OC[C@@H]3CCCN3C)nc3c2CCN(c2cccc4cnccc24)C3)CC1CC#N (stereo partly drawn) [Example 262, 2-[4-[7-(5-isoquinolyl)-2-[[(2S)-1-methylpyrrolidin-2-yl]methoxy]-6,8-dihydro-5H-pyrido[3,4-d]pyrimidin-4-yl]-1-prop-2-enoyl-piperazin-2-yl]acetonitrile] | > 1000 nM |
| C/C=C/C(=O)N1CCN(c2nc(OC[C@@H]3CCCN3C)nc3c2CCN(c2cccc4ccccc24)C3)CC1CC#N (stereo partly drawn) [Example 263, 2-[1-[(E)-but-2-enoyl]-4-[2-[[(2S)-1-methylpyrrolidin-2-yl]methoxy]-7-(1-naphthyl)-6,8-dihydro-5H-pyrido[3,4-d]pyrimidin-4-yl]piperazin-2-yl]acetonitrile] | 0.1 to 1000 nM |
| C=CC(=O)N1CCN(c2nc(OC[C@@H]3CCCN3C)nc3c2CCN(c2cccc4ncccc24)C3)CC1CC#N (stereo partly drawn) [Example 264, 2-[4-[2-[[(2S)-1-methylpyrrolidin-2-yl]methoxy]-7-(5-quinolyl)-6,8-dihydro-5H-pyrido[3,4-d]pyrimidin-4-yl]-1-prop-2-enoyl-piperazin-2-yl]acetonitrile] | > 1000 nM |
| C=CC(=O)N1CCN(c2nc(OC[C@@H]3CCCN3C)nc3c2CCN(c2cccc(C)c2C(F)(F)F)C3)CC1CC#N (stereo partly shown) [Example 265] | 0.1 to 1000 nM |
| C=CC(=O)N1CCN(c2nc(OC[C@@H]3CCCN3CCOC)nc3c2CCN(c2cccc4ccccc24)C3)CC1CC#N (stereo partly drawn) [Example 266, 2-(1-acryloyl-4-(2-(((S)-1-(2-methoxyethyl)pyrrolidin-2-yl)methoxy)-7-(naphthalen-1-yl)-5,6,7,8-tetrahydropyrido[3,4-d]pyrimidin-4-yl)piperazin-2-yl)acetonitrile] | 0.1 to 1000 nM |
| C=CC(=O)N1CCN(c2nc(OC[C@@H]3C[C@@H](OC)CN3C)nc3c2CCN(c2cccc4ccccc24)C3)CC1CC#N (stereo partly drawn) [Example 268, 2-(1-acryloyl-4-(2-(((2S,4R)-4-methoxy-1-methylpyrrolidin-2-yl)methoxy)-7-(naphthalen-1-yl)-5,6,7,8-tetrahydropyrido[3,4-d]pyrimidin-4-yl)piperazin-2-yl)acetonitrile] | 0.1 to 1000 nM |

— patent US10689377B2 (Mirati Therapeutics, Inc., priority 2017, dated 2020)
